According to patent US20100137313A1 (ASTRAZENECA AB, priority 2008, published 2010):

Biological target: S. pneumoniae Topoisomerase IV ATPase (ParE) (Streptococcus pneumoniae serotype 4, UniProt Q59961)
Assay: S. pneumoniae Topoisomerase IV ATPase inhibition
Type: biochemical
Details: values marked * are an average of two or more data points, read-out: % Inh (13 μM) of S. pneumoniae Topoisomerase IV ATPase
Procedure, shortened: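 ParE ATPase (1.25 nM) run with 160 μM ATP and 5 μg/ml sheared salmon sperm DNA in Tris pH 8.0, Mg2+, glycerol, DTT, Brij-35. Phosphate released read by malachite green/molybdate absorbance at 650 nm. IC50 from 10 compound concentrations; DMSO (2%) as 0% and EDTA (20 μM) as 100% inhibition.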

S. pneumoniae Topoisomerase IV ATPase (ParE), sequence (Q59961 whole entry): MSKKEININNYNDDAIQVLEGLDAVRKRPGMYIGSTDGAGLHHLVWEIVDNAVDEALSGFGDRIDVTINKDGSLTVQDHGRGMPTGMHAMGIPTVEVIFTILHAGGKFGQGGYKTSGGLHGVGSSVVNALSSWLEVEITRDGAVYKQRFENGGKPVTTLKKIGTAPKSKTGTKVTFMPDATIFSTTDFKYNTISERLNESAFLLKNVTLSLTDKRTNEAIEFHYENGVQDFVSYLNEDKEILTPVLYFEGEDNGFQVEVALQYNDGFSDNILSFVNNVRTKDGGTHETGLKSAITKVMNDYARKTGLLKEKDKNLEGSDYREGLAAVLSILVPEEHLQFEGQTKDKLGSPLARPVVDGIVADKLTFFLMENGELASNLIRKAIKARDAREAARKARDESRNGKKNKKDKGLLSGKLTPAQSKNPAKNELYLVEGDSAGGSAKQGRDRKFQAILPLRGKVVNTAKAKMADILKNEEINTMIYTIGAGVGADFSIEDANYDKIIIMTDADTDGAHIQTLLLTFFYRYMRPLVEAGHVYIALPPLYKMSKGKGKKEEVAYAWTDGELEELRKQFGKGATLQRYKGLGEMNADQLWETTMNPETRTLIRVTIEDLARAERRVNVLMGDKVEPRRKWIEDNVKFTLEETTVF

SMILES | inhibition at 13 µM [%]
COc1cc(Nc2ncc(-c3cnc(OC)c(C(=O)NS(=O)(=O)CCCN4CCOCC4)c3)c(-n3nc(C(F)(F)F)cc3C)n2)cc(OC)c1 [Example 821, 5-{2-[(3,5-dimethoxyphenyl)amino]-4-[5-methyl-3-(trifluoromethyl)-1H-pyrazol-1-yl]pyrimidin-5-yl}-2-methoxy-N-{[3-(morpholin-4-yl)propyl]sulfonyl}pyridine-3-carboxamide] | 100
CCS(=O)(=O)NC(=O)c1cc(-c2cnc(Nc3cc(C)cc(C)c3)nc2-n2ccc(C(F)(F)F)n2)cnc1OC [Example 822, 5-{2-[(3,5-dimethylphenyl)amino]-4-[3-(trifluoromethyl)-1H-pyrazol-1-yl]pyrimidin-5-yl}-N-(ethylsulfonyl)-2-methoxypyridine-3-carboxamide] | 100
CCS(=O)(=O)NC(=O)c1cc(-c2cnc(Nc3cc(C)cc(C)c3)nc2-n2nc(C(F)(F)F)cc2C)cnc1OC [Example 823] | 100
CCCS(=O)(=O)NC(=O)c1cc(-c2cnc(Nc3cc(C)cc(C)c3)nc2-n2ccc(C(F)(F)F)n2)cnc1OC [Example 824, 5-{2-[(3,5-dimethylphenyl)amino]-4-[3-(trifluoromethyl)-1H-pyrazol-1-yl]pyrimidin-5-yl}-2-methoxy-N-(propylsulfonyl)pyridine-3-carboxamide] | 100
CCCS(=O)(=O)NC(=O)c1cc(-c2cnc(Nc3cc(C)cc(C)c3)nc2-n2nc(C(F)(F)F)cc2C)cnc1OC [Example 825, 5-{2-[(3,5-dimethylphenyl)amino]-4-[5-methyl-3-(trifluoromethyl)-1H-pyrazol-1-yl]pyrimidin-5-yl}-2-methoxy-N-(propylsulfonyl)pyridine-3-carboxamide] | 100
COc1ncc(-c2cnc(Nc3cc(C)cc(C)c3)nc2-n2ccc(C(F)(F)F)n2)cc1C(=O)NS(=O)(=O)C(C)C [Example 826, 5-{2-[(3,5-dimethylphenyl)amino]-4-[3-(trifluoromethyl)-1H-pyrazol-1-yl]pyrimidin-5-yl}-2-methoxy-N-(propan-2-ylsulfonyl)pyridine-3-carboxamide] | 96
COc1ncc(-c2cnc(Nc3cc(C)cc(C)c3)nc2-n2nc(C(F)(F)F)cc2C)cc1C(=O)NS(=O)(=O)C(C)C [Example 827, 5-{2-[(3,5-dimethylphenyl)amino]-4-[5-methyl-3-(trifluoromethyl)-1H-pyrazol-1-yl]pyrimidin-5-yl}-2-methoxy-N-(propan-2-ylsulfonyl)pyridine-3-carboxamide] | 100
COc1ncc(-c2cnc(Nc3cc(C)cc(C)c3)nc2-n2ccc(C(F)(F)F)n2)cc1C(=O)NS(=O)(=O)CCCN1CCOCC1 [Example 828, 5-{2-[(3,5-dimethylphenyl)amino]-4-[3-(trifluoromethyl)-1H-pyrazol-1-yl]pyrimidin-5-yl}-2-methoxy-N-{[3-(morpholin-4-yl)propyl]sulfonyl}pyridine-3-carboxamide] | 100
COc1ncc(-c2cnc(Nc3cc(C)cc(C)c3)nc2-n2nc(C(F)(F)F)cc2C)cc1C(=O)NS(=O)(=O)CCCN1CCOCC1 [Example 829, 5-{2-[(3,5-dimethylphenyl)amino]-4-[5-methyl-3-(trifluoromethyl)-1H-pyrazol-1-yl]pyrimidin-5-yl}-2-methoxy-N-{[3-(morpholin-4-yl)propyl]sulfonyl}pyridine-3-carboxamide] | 100
COc1cc(Nc2ncc(-c3ccc4c(c3)C(=O)NS4(=O)=O)c(-n3nc(C(F)(F)F)cc3C)n2)cc(OC)c1 [Example 830, 5-{2-[(3,5-dimethoxyphenyl)amino]-4-[5-methyl-3-(trifluoromethyl)-1H-pyrazol-1-yl]pyrimidin-5-yl}-1,2-benzothiazol-3(2H)-one 1,1-dioxide] | 100
COc1cc(Nc2ncc(-c3ccc4c(c3)C(=O)NS4(=O)=O)c(-n3ccc(C(F)(F)F)n3)n2)cc(OC)c1 [Example 831, 5-{2-[(3,5-dimethoxyphenyl)amino]-4-[3-(trifluoromethyl)-1H-pyrazol-1-yl]pyrimidin-5-yl}-1,2-benzothiazol-3(2H)-one 1,1-dioxide] | 89
Cc1cc(C)cc(Nc2ncc(-c3ccc4c(c3)C(=O)NS4(=O)=O)c(-n3nc(C(F)(F)F)cc3C)n2)c1 [Example 832, 5-{2-[(3,5-dimethylphenyl)amino]-4-[5-methyl-3-(trifluoromethyl)-1H-pyrazol-1-yl]pyrimidin-5-yl}-1,2-benzothiazol-3(2H)-one 1,1-dioxide] | 100
Cc1cc(C)cc(Nc2ncc(-c3ccc4c(c3)C(=O)NS4(=O)=O)c(-n3ccc(C(F)(F)F)n3)n2)c1 [Example 833, 5-{2-[(3,5-dimethylphenyl)amino]-4-[3-(trifluoromethyl)-1H-pyrazol-1-yl]pyrimidin-5-yl}-1,2-benzothiazol-3(2H)-one 1,1-dioxide] | 100
COc1cc(Nc2ncc(-c3cnc(OC)c(C(=O)NS(=O)(=O)c4sc(NC(C)=O)nc4C)c3)c(-n3nc(C(F)(F)F)cc3C)n2)cc(OC)c1 [Example 834, N-{[2-(acetylamino)-4-methyl-1,3-thiazol-5-yl]sulfonyl}-5-{2-[(3,5-dimethoxyphenyl)amino]-4-[5-methyl-3-(trifluoromethyl)-1H-pyrazol-1-yl]pyrimidin-5-yl}-2-methoxypyridine-3-carboxamide] | 98
COc1cc(Nc2ncc(-c3cnc(OC)c(C(=O)NS(=O)(=O)CC(F)(F)F)c3)c(-n3nc(C(F)(F)F)cc3C)n2)cc(OC)c1 [Example 835, 5-{2-[(3,5-dimethoxyphenyl)amino]-4-[5-methyl-3-(trifluoromethyl)-1H-pyrazol-1-yl]pyrimidin-5-yl}-2-methoxy-N-[(2,2,2-trifluoroethyl)sulfonyl]pyridine-3-carboxamide] | 95
COc1cc(Nc2ncc(-c3cnc(OC)c(C(=O)NS(=O)(=O)c4c(C)noc4C)c3)c(-n3nc(C(F)(F)F)cc3C)n2)cc(OC)c1 [Example 836, 5-{2-[(3,5-dimethoxyphenyl)amino]-4-[5-methyl-3-(trifluoromethyl)-1H-pyrazol-1-yl]pyrimidin-5-yl}-N-[(3,5-dimethyl-1,2-oxazol-4-yl)sulfonyl]-2-methoxypyridine-3-carboxamide] | 94
COc1cc(Nc2ncc(-c3cnc(OC)c(C(=O)NS(=O)(=O)c4sc(C)nc4C)c3)c(-n3nc(C(F)(F)F)cc3C)n2)cc(OC)c1 [Example 837, 5-{2-[(3,5-dimethoxyphenyl)amino]-4-[5-methyl-3-(trifluoromethyl)-1H-pyrazol-1-yl]pyrimidin-5-yl}-N-[(2,4-dimethyl-1,3-thiazol-5-yl)sulfonyl]-2-methoxypyridine-3-carboxamide] | 94
COc1cc(Nc2ncc(-c3cnc(OC)c(C(=O)NS(=O)(=O)CS(C)(=O)=O)c3)c(-n3nc(C(F)(F)F)cc3C)n2)cc(OC)c1 [Example 838, 5-{2-[(3,5-dimethoxyphenyl)amino]-4-[5-methyl-3-(trifluoromethyl)-1H-pyrazol-1-yl]pyrimidin-5-yl}-2-methoxy-N-{[(methylsulfonyl)methyl]sulfonyl}pyridine-3-carboxamide] | 99
COc1cc(Nc2ncc(-c3cnc(OC)c(C(=O)NS(=O)(=O)c4cn(C)cn4)c3)c(-n3nc(C(F)(F)F)cc3C)n2)cc(OC)c1 [Example 839, 5-{2-[(3,5-dimethoxyphenyl)amino]-4-[5-methyl-3-(trifluoromethyl)-1H-pyrazol-1-yl]pyrimidin-5-yl}-2-methoxy-N-[(1-methyl-1H-imidazol-4-yl)sulfonyl]pyridine-3-carboxamide] | 100
COc1cc(Nc2ncc(-c3cnc(OC)c(C(=O)NS(=O)(=O)C4=CCS(=O)(=O)C4)c3)c(-n3nc(C(F)(F)F)cc3C)n2)cc(OC)c1 [Example 840, 5-{2-[(3,5-dimethoxyphenyl)amino]-4-[5-methyl-3-(trifluoromethyl)-1H-pyrazol-1-yl]pyrimidin-5-yl}-N-[(1,1-dioxido-2,5-dihydrothiophen-3-yl)sulfonyl]-2-methoxypyridine-3-carboxamide] | 99
COc1cc(Nc2ncc(-c3cnc(OC)c(C(=O)NS(=O)(=O)c4c(C)nn(C)c4C)c3)c(-n3nc(C(F)(F)F)cc3C)n2)cc(OC)c1 [Example 842, 5-{2-[(3,5-dimethoxyphenyl)amino]-4-[5-methyl-3-(trifluoromethyl)-1H-pyrazol-1-yl]pyrimidin-5-yl}-2-methoxy-N-[(1,3,5-trimethyl-1H-pyrazol-4-yl)sulfonyl]pyridine-3-carboxamide] | 97
COc1cc(Nc2ncc(-c3cnc(OC)c(C(=O)NS(=O)(=O)c4cccc(C(C)=O)c4)c3)c(-n3nc(C(F)(F)F)cc3C)n2)cc(OC)c1 [Example 844, N-[(3-acetylphenyl)sulfonyl]-5-{2-[(3,5-dimethoxyphenyl)amino]-4-[5-methyl-3-(trifluoromethyl)-1H-pyrazol-1-yl]pyrimidin-5-yl}-2-methoxypyridine-3-carboxamide] | 100
COc1cc(Nc2ncc(-c3cnc(OC)c(C(=O)NS(=O)(=O)c4cn(C)nc4C(F)(F)F)c3)c(-n3nc(C(F)(F)F)cc3C)n2)cc(OC)c1 [Example 845, 5-{2-[(3,5-dimethoxyphenyl)amino]-4-[5-methyl-3-(trifluoromethyl)-1H-pyrazol-1-yl]pyrimidin-5-yl}-2-methoxy-N-{[1-methyl-3-(trifluoromethyl)-1H-pyrazol-4-yl]sulfonyl}pyridine-3-carboxamide] | 92
COc1cc(Nc2ncc(-c3cnc(OC)c(C(=O)NS(=O)(=O)c4ccc(CNC(C)=O)cc4)c3)c(-n3nc(C(F)(F)F)cc3C)n2)cc(OC)c1 [Example 846, N-({4-[(acetylamino)methyl]phenyl}sulfonyl)-5-{2-[(3,5-dimethoxyphenyl)amino]-4-[5-methyl-3-(trifluoromethyl)-1H-pyrazol-1-yl]pyrimidin-5-yl}-2-methoxypyridine-3-carboxamide] | 97
